Entries after “also recorded” stand apart in the source; their conditions may differ. Like-named read-outs stand apart in the source and are kept apart here. Positions of bridges follow the written chain, without caps; N, C: chain ends. Residues, ends and D or L forms follow the SMILES beside them.
Tests used:
SKOV3 cells = assay: Disruption of human ovarian cancer cell (SKOV3) adhesion; assay type: cell-based; details: 1 mg/mL media, within 24 hours
Method: FIGS. 37A and 37B are photographs illustrating the effect of N—Ac-CHAVC-Y—NH2 (SEQ ID NO:84) on SKOV3 cell adhesion. A confluent culture of SKOV3 cells was briefly trypsinated and counted using a hemacytometer. The cells were diluted to 5×10^3/mL in MEM (Gibco BRL) containing 10% FBS (Wisent). A 10 mg/mL solution of peptide was added directly to the media at a concentration of 1 mg/mL. The plate was incubated in a humidified chamber at 37° C. for 24 hours in 5% CO2. Morphological changes were evaluated after 24 hours.
The human ovarian cancer cell line SKOV3 (ATCC #HTB-77) expresses N-cadherin. SKOV3 cells were cultured in a modified MEM-based media containing 10% FCS. Cells were grown in T-250 culture flasks and maintained by periodic subculturing. Cyclic peptides were tested on cells grown in individual wells of 96-well culture dishes (surface area of each well was 0.32 cm^2). Cells were harvested from flasks and seeded at a density of 50,000 cells per well in 0.1 mL media containing the cyclic peptides at concentrations of 1, 0.1, or 0.01 mg/mL, or in the absence of cyclic peptide. Media control wells were also established. Cultures were evaluated periodically by microscopic examination under both bright field and phase contrast conditions. Cultures were maintained for 48 hours.

chick N-cadherin = target: T1, chick N-cadherin (Gallus gallus, UniProt P10288); assay: Neurite outgrowth of rat cerebellar neurons on N-cadherin expressing 3T3 monolayers (Example 15); assay type: cell-based
T1 construct: expressed in transfected cells; host or cells: 3T3 fibroblasts (monolayer); rat post-natal day 2-3 cerebellar neurons plated on top
T1 sequence (P10288 165-912): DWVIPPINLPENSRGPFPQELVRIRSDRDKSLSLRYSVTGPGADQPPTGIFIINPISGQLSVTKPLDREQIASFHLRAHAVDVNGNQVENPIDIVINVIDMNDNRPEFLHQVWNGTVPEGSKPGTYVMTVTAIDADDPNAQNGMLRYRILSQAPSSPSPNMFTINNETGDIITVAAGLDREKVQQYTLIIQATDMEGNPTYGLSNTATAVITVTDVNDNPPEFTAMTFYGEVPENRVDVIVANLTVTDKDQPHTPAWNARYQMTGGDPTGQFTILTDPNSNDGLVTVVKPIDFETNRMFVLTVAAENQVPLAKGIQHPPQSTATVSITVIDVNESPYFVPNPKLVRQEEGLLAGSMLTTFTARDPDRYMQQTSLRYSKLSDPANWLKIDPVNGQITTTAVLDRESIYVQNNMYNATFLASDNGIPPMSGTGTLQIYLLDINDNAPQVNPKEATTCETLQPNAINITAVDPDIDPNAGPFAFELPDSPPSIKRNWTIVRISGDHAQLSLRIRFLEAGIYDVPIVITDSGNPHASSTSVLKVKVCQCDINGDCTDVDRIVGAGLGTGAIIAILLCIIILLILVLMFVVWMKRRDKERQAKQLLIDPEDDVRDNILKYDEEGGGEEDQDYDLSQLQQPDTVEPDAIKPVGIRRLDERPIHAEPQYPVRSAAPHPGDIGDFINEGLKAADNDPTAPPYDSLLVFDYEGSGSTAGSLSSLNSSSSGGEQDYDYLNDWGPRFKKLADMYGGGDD

[1] = system: Madin Darby canine kidney (MDCK) cells; assay type: cell-based
Method: Yet another assay evaluates the effect of a modulating agent on the electrical resistance across a monolayer of cells. For example, Madin Darby canine kidney (MDCK) cells can be exposed to the modulating agent dissolved in medium (e.g., at a final concentration of 0.5 mg/ml for a period of 24 hours). The effect on electrical resistance can be measured using standard techniques. This assay evaluates the effect of a modulating agent on tight junction formation in epithelial cells. In general, the presence of 500 μg/mL modulating agent should result in a statistically significant decrease in electrical resistance after 24 hours.
Madin Darby canine kidney (MDCK) cells were plated in Millicells (Millipore, Bedford, Mass.), at a density of 300,000 cells per Millicell, and cultured in Dulbecco's Modified Eagle Medium (DMEM; Sigma, St. Louis, Mo.) containing 5% fetal calf serum (Sigma, St. Louis, Mo.) until monolayers formed. Monolayers were exposed to the modulating agent dissolved in medium. The electrical resistance was measured using the EVOM device (World Precision Instruments, Sarasota, Fla.). At the time of measurement, fresh medium, with or without the modulating agent, may be added to the Millicells.

[2] = system: Madin Darby canine kidney (MDCK) cells; assay type: cell-based; details: 18 h
[3] = system: Human saphenous vein vascular smooth muscle cells; assay: Vascular smooth muscle cell apoptosis at migrating wound edge, in situ end labeling; assay type: cell-based; details: 0.2 mg/ml, 24 hours after wounding, n=5, p=0.1
Method: Human saphenous vein vascular smooth muscle cells were explanted from surplus segments of vein from patients undergoing coronary artery bypass surgery. Cells were maintained in Dulbecco's modified essential medium supplemented with […], 2 mmol/L L-glutamine and 10% fetal calf serum and were grown to confluence on glass coverslips. The cell layer was then subjected to scrape-wounding by drawing a fine cell scraper across the coverslip. Proliferation of the vascular smooth muscle cells was inhibited by addition of 2 mM hydroxyurea to the culture media. Vascular smooth muscle cells that are treated in this manner respond to the wounding of the confluent monolayer by migrating into the wound (Hammerle et al (1991) Vasa 20, 207-215). The percentage of apoptotic cells in the migrating edge (outermost 100 μm from the wound) was assessed by in situ end labeling at 24 hours after wounding (as in George et al (2001) Gene Therapy 8 668-676).

L1 = L1 (Homo sapiens, UniProt P32004); assay: Neurite outgrowth of rat cerebellar neurons on L1 expressing 3T3 monolayers (Example 15); assay type: cell-based; parameters: expressed in transfected cells; rat cerebellar neurons on top
Method: Cell culture and neurite outgrowth assays. Co-cultures of cerebellar neurons on monolayers of control 3T3 cells and monolayers of transfected 3T3 cells that express physiological levels of chick N-cadherin or human L1 were established as previously described (Williams et al., Neuron 13:583-594, 1994). In brief, 80,000 3T3 cells (control and transfected) were plated into individual chambers of an eight-chamber tissue culture slide coated with polylysine and fibronectin and cultured in DMEM/10% FCS. After 24 hours, when confluent monolayers had formed, the medium was removed and 3000 cerebellar neurons isolated from post-natal day 2-3 rats were plated into each well in SATO media (Doherty et al., Nature 343:464-466, 1990) supplemented with 2% FCS. All of the test peptides were added immediately before the neurons as a 2× stock prepared in SATO/2% FCS. The co-cultures were maintained for 16-18 hours, at which time they were fixed and immunostained for GAP-43 which is present only in the neurons and delineates the neuritic processes. The mean length of the longest neurite per cell was measured for 150-200 neurons sampled in replicate cultures as previously described (Williams et al., Neuron 13:583-594, 1994). […] Dose-response curves were evaluated and the EC50 values determined.
Other cell adhesion molecules, such as L1, can stimulate neurite outgrowth, and this response shares the same downstream signaling steps as the N-cadherin response. […] As previously reported, L1 stimulated neurite outgrowth from cerebellar neurons.

[4] = system: Bovine pulmonary artery endothelial cells; assay: Disruption of bovine endothelial cell adhesion; assay type: cell-based; details: 500 μg/ml, 30 minutes
Method: For use within one such assay, bovine pulmonary artery endothelial cells may be harvested by sterile ablation and digestion in 0.1% collagenase (type II; Worthington Enzymes, Freehold, N.J.). Cells may be maintained in Dulbecco's minimum essential medium supplemented with 10% fetal calf serum and 1% antibiotic-antimycotic at 37° C. in 7% CO2 in air. Cultures may be passaged weekly in trypsin-EDTA and seeded onto tissue culture plastic at 20,000 cells/cm^2. Endothelial cultures may be used at 1 week in culture, which is approximately 3 days after culture confluency is established. The cells may be seeded onto coverslips and treated (e.g., for 30 minutes) with modulating agent or a control compound at, for example, 500 μg/ml and then fixed with 1% paraformaldehyde. As noted above, disruption of cell adhesion may be determined visually within 24 hours, by observing retraction of the cells from one another. This assay evaluates the effect of a modulating agent on N-cadherin mediated cell adhesion.
Bovine pulmonary artery endothelial cells were harvested by sterile ablation and digestion in 0.1% collagenase (type II; Worthington Enzymes, Freehold, N.J.). Cells were maintained in Dulbecco's minimum essential medium (Clonetics, San Diego, Calif.) supplemented with 10% fetal calf serum (Atlantic Biologicals, Nor cross, Ga.) and 1% antibiotic-antimycotic at 37° C. in 7% CO2 in air. Cultures were passaged weekly in trypsin-EDTA (Gibco, Grand Island, N.Y.) and seeded onto tissue culture plastic at 20,000 cells/cm^2 for all experiments. Endothelial cultures were used at 1 week in culture, which is approximately 3 days after culture confluency was established. The cells used in all protocols were between 4th passage and 10th passage. The cells were seeded onto coverslips and treated 30 minutes with N—Ac-CHAVC-NH2 (SEQ ID NO:10) or N—Ac-CHGVC-NH2 (SEQ ID NO:11) at 500 μg/ml and then fixed with 1% paraformaldehyde.

HMVEC = assay type: cell-based, human; details: 3 h
Outline: (§1)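 Cytotoxicity of N-Ac-CHAVC-NH2 and the control peptide N-Ac-CHGVC-NH2 was assessed by MTT reduction in human endothelial, fibroblast and cancer cell lines at concentrations up to 100 μM. Proliferation was measured separately by ^3H-thymidine incorporation over the same concentration range.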

HUVEC = assay type: cell-based, human; details: 3 h
Outline: as §1

IAFp2 = assay type: cell-based, human; details: 3 h
Outline: as §1

MDA-MB231 [5] = assay type: cell-based, human; details: 3 h
Outline: as §1

PC-3 [6] = assay type: cell-based, human; details: 3 h
Outline: as §1

WI-38 = assay type: cell-based, human; details: 3 h
Outline: as §1

MDA-MB231 [7] = assay: Cytotoxicity, MTT assay, MDA-MB231; assay type: cell-based, human
Outline: as §1

PC-3 [8] = assay: Cytotoxicity, MTT assay, PC-3; assay type: cell-based, human
Outline: as §1

N-cadherin = target: T2, N-cadherin (Gallus gallus, UniProt P10288); assay: Neurite outgrowth inhibition, rat neurons (Example 21); assay type: cell-based; details: read-out: % Inhibition of neurite outgrowth; 250 μg/mL
T2 construct: expressed in transfected cells; host or cells: 3T3 fibroblasts (monolayer)
T2 sequence (P10288 165-912): T1 sequence (P10288 165-912)

Solubility in RPMI = assay type: physicochemical; details: 1 mM

L1, sequence (P32004 20-1257): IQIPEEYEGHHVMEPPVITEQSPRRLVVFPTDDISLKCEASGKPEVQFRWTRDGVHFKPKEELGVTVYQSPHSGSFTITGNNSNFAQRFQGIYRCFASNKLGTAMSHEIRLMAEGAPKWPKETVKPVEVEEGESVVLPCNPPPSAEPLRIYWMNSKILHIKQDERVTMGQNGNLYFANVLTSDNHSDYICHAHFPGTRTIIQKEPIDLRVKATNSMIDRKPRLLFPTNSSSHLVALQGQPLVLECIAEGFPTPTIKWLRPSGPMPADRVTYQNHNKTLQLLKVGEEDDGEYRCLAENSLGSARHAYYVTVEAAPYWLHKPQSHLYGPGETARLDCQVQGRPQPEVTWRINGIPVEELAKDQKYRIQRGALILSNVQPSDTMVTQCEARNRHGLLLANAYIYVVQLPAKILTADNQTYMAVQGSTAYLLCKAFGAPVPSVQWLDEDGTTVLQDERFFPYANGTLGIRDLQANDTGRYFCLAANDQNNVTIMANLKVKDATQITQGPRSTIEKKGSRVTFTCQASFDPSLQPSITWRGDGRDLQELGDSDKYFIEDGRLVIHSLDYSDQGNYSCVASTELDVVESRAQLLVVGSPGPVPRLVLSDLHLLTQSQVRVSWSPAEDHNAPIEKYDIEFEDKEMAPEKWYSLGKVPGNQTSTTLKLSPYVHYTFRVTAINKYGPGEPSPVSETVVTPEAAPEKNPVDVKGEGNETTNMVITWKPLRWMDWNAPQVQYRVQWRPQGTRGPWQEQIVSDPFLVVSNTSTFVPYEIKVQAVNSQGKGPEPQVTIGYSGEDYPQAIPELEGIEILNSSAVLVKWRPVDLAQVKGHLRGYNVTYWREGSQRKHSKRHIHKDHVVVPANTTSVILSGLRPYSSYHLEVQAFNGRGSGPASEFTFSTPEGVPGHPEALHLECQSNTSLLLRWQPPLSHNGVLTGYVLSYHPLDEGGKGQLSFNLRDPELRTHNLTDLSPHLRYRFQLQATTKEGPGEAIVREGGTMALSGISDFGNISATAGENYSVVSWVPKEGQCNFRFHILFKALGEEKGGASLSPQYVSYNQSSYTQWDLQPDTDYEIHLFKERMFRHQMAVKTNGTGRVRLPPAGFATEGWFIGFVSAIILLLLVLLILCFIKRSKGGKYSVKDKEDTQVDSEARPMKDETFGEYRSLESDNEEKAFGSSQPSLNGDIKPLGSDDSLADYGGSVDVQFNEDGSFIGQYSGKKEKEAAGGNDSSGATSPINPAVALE

SMILES	disruption of SKOV3 cell adhesion (SKOV3 cells)	% inhibition of N-cadherin dependent neurite outgrowth (chick N-cadherin; 125 μg/mL, 16-18 hours) [%]	inhibition at 125 µg/mL (chick N-cadherin; 125 μg/mL, 16-18 hours, read-out: % Inhibition of N-Cadherin Dependent Neurite Outgrowth) [%]	effect on electrical resistance across MDCK cells (in words) [1]	EC50 [2] [µM]	inhibitory activity on N-cadherin dependent neurite outgrowth, structure/activity statements (chick N-cadherin; Tables 8 and 9)	increase in apoptosis at wound edge [3] [fold]	inhibition at 125 µg/mL (L1; 125 μg/ml, read-out: % Inhibition of L1 Response) [%]	effect on L1 stimulated neurite outgrowth (in words) (L1; concentrations that inhibited the N-cadherin response (100 μg/mL in FIG. 24))	effect on endothelial cell monolayer / morphology [4]	IC50 (HMVEC) [µM]	IC50 (HUVEC) [µM]	IC50 (IAFp2) [µM]	IC50 (MDA-MB231 [5]) [µM]	IC50 (PC-3 [6]) [µM]	IC50 (WI-38) [µM]	IC50 (MDA-MB231 [7]) [µM]	IC50 (PC-3 [8]) [µM]	inhibition at 250 µg/mL (N-cadherin) [%]	solubility in RPMI (Solubility in RPMI)
CC(=O)N[C@H]1CSSC[C@@H](C(=O)N[C@@H](Cc2ccc(O)cc2)C(N)=O)NC(=O)[C@H](C(C)C)NC(=O)[C@H](C)NC(=O)[C@H](Cc2c[nH]cn2)NC1=O [N—Ac—CHAVCY—NH2] (Ac-CHAVCY-NH2; disulfide 1-5)	disrupted SKOV3 cell adhesion	89.8 ± 6.8	89.9	the most active	210															
CC[C@H](C)[C@@H]1NC(=O)[C@H](CC(=O)O)NC(=O)[C@H](C(C)C)NC(=O)[C@H](C)NC(=O)[C@H](Cc2c[nH]cn2)NC(=O)[C@@H](NC(C)=O)CSSC[C@@H](C(N)=O)NC1=O [N—Ac—CHAVDIC—NH2] (Ac-CHAVDIC-NH2; disulfide 1-7)				complete abrogation of E-cadherin specific activity		further increased activity; also recorded: potent inhibitors	1.3	6 ± 4.7	did not interfere with the ability of neurons to extend neurites over 3T3 cells expressing L1											
CC[C@H](C)[C@@H]1NC(=O)[C@H](CC(=O)O)NC(=O)[C@H](C(C)C)NC(=O)CNC(=O)[C@H](Cc2c[nH]cn2)NC(=O)[C@H](C)NC(=O)[C@@H](NC(C)=O)CSSC[C@@H](C(N)=O)NC1=O (Ac-CAHGVDIC-NH2; disulfide 1-8)										neither of the cyclic peptides show activity	> 100	> 100	> 100	> 100	> 100	> 100	> 100	> 100	0	
CC(=O)N[C@H]1CSSC[C@@H](C(N)=O)NC(=O)[C@H](CO)NC(=O)[C@H](C(C)C)NC(=O)[C@H](C)NC(=O)[C@H](Cc2c[nH]cn2)NC1=O [N—Ac—CHAVSC—NH2, N-Ac-Cys-His-Ala-Val-Ser-Cys-NH2] (Ac-CHAVSC-NH2; disulfide 1-6 (inferred))											> 100	57	> 100	52	> 100	> 100	> 100	> 100	0	*Incompletely soluble in RPMI at 1 mM

Source: US20040106545A1, “Compounds and methods for modulating cell adhesion” (priority 1996, published 2004)
